Results from patent EP0855398B1, “SESQUITERPENE DERIVATIVES HAVING ANTIVIRAL ACTIVITY” (SHIONOGI & CO., LTD., priority 1995, dated 1997).
Converted amounts (≈) assume the structure as drawn.

Legend:
[1] = in vitro; conditions: bovine; for CC50 at 72 h: mdbk cells
[2] = tested on: Influenza virus A/WSN/33 (H1N1); test: microbe, parasite or virus in culture; assay type: cell-based; conditions: 72 h; viral strain: Influenza virus A/WSN/33 (H1N1); Cell: MDBK; […]; 3 days; read-out: IC50

Structure (SMILES) | CC50 at 72 h [1] [µg/mL] | IC50 [2] [µg/mL] | CC50 [1] [µg/mL]
C[C@H]1CC[C@H]2C(C)(C)[C@@H](O)CC[C@]23Oc2c(c(O)cc4c2CNC4=O)C[C@]13C [(2)] | 25 (≈ 64.9 µM) | 0.001 (≈ 0.00259 µM) | 
C[C@H]1CC[C@H]2C(C)(C)[C@@H](O)CC[C@]23Oc2c(c(O)cc4c2C(=O)NC4=O)C[C@]13C [(32a), (6aR, 7S, 9aS, 115, 13aS)-2,3,6,6a, 7,8,9,9a, 10, 11, 12, 13-dodecahydro-5, 11-dihydroxy-6a, 7, 30, 10-tetramethyl-13-dioxo-1H-benzo[8,8a][1]benzopyrano[2,3-e]isoindole] | 20 (≈ 50.1 µM) | 0.001 to 0.002 (≈ 0.0025 to 0.00501 µM) | 
C[C@H]1CC[C@H]2C(C)(C)[C@H](OS(C)(=O)=O)CC[C@]23Oc2c(c(O)cc4c2CNC4=O)C[C@]13C [Compound (13b), (6a R, 7 S, 9a S, 11 R, 13a S)-2,3,6,6a, 7,8,9,9a, 10, 11, 12, 13-dodecahydro-5-hydroxy-6a, 7, 10, 10-tetramethyl-11-methanesulfonyloxy-3-oxo-1H-benzo[8,8a][1]benzopyrano[2,3-e]isoindole] |  | 0.02 (≈ 0.0431 µM) | 5 (≈ 10.8 µM)
C[C@H]1CC[C@H]2C(C)(C)[C@H](OS(=O)(=O)c3ccccc3)CC[C@]23Oc2c(c(O)cc4c2CNC4=O)C[C@]13C [Compound (13d), (6a R, 7 S, 9a S, 11 R, 13a S)-2,3,6,6a, 7,8,9,9a, 10, 11, 12, 13-dodecahydro-5-hydroxy-6a, 7, 10, 10-tetramethyl-3-oxo-11-phenylsulfonyloxy-1H-benzo[8,8a][1]benzopyrano[2,3-e]isoindole] |  | 0.02 to 0.06 (≈ 0.038 to 0.114 µM) | 10 (≈ 19 µM)
C[C@H]1CC[C@H]2C(C)(C)[C@@H](O)CC[C@]23Oc2c(c(O)cc4c2CN(C)C4=O)C[C@]13C [Compound (28a), (6aR, 7S, 9aS, 11S, 13aS)-2,3,6,6a, 7,8,9,9a, 10, 11, 12, 13-dodecahydro-5, 11-dihydroxy-2,6a, 7, 10, 10-pentamethyl-3-oxo-1H-benzo[8,8a][1]benzopyrano[2,3-e]isoindole] |  | 0.02 (≈ 0.0501 µM) | 10 to 20 (≈ 25 to 50.1 µM)
CCCCN1Cc2c(cc(O)c3c2O[C@@]24CC[C@H](O)C(C)(C)[C@@H]2CC[C@H](C)[C@@]4(C)C3)C1=O [Compound (28b), (6aR, 7S, 9aS, 11S, 13aS)-2-butyl-2,3,6,6a, 7,8,9,9a, 10, 11, 12, 13-dodecahydro-5, 11-dihydroxy-6a, 7, 10, 10-tetramethyl-3-oxo-1H-benzo[8,8a][1]benzopyrano[2,3-e]isoindole] |  | 0.02 (≈ 0.0453 µM) | 2.5 (≈ 5.66 µM)
C[C@H]1CC[C@H]2C(C)(C)[C@@H](O)CC[C@]23Oc2c(c(O)cc4c2CN(S(C)(=O)=O)C4=O)C[C@]13C [Compound (28e), (6aR, 7S, 9aS, 11S, 13aS)-2,3,6,6a, 7,8,9,9a, 10, 11, 12, 13-dodecahydro-5, 11-dihydroxy-6a, 7, 10, 10-tetramethyl-2-methanesulfonyl-3-oxo-1H-benzo[8,8a][1]benzopyrano[2,3-e]isoindole] |  | 0.03 (≈ 0.0647 µM) | > 10
CC(=O)N1Cc2c(cc(O)c3c2O[C@@]24CC[C@H](O)C(C)(C)[C@@H]2CC[C@H](C)[C@@]4(C)C3)C1=O [Compound (28f), (6aR, 7S, 9aS, 115, 13aS)-2-acetyl-2,3,6,6a, 7,8,9,9a, 10, 11, 12, 13-dodecahydro-5,11-dihydroxy-6a, 7, 10, 10-tetramethyl-3-oxo-1H-benzo[8,8a][1]benzopyrano[2,3-e]isoindole] | > 10 | 0.02 (≈ 0.0468 µM) | 
C[C@H]1CC[C@H]2C(C)(C)[C@@H](O)CC[C@]23Oc2c(c(O)cc4c2C(O)NC4=O)C[C@]13C (stereo partly drawn) [Compound (30a), (6aR, 7S, 9aS, 11S, 13aS)-2,3,6,6a, 7,8,9,9a, 10, 11, 12, 13-dodecahydro-1,5, 11-trihydroxy-6a, 7, 10, 10-tetramethyl-3-oxo-1H-benzo[8,8a][1]benzopyrano[2,3-e]isoindole] |  | 0.002 (≈ 0.00498 µM) | > 40
COC1NC(=O)c2cc(O)c3c(c21)O[C@@]12CC[C@H](O)C(C)(C)[C@@H]1CC[C@H](C)[C@@]2(C)C3 (stereo partly drawn) [Compound (30b), (6aR, 7S, 9aS, 11S, 13aS)-2,3,6,6a, 7,8,9,9a, 10, 11, 12, 13-dodecahydro-5, 11-dihydroxy-1-methoxy-6a, 7, 10, 10-tetramethyl-3-oxo-1H-benzo[8,8a][1]benzopyrano[2,3-e]isoindole] |  | 0.04 (≈ 0.0963 µM) | 20 (≈ 48.1 µM)
CCCOC1NC(=O)c2cc(O)c3c(c21)O[C@@]12CC[C@H](O)C(C)(C)[C@@H]1CC[C@H](C)[C@@]2(C)C3 (stereo partly drawn) [Compound (30c), (6aR, 7S, 9aS, 11S, 13aS)-2,3,6,6a, 7,8,9,9a, 10, 11, 12, 13-dodecahydro-5, 11-dihydroxy-1-propoxy-6a, 7, 10, 10-tetramethyl-3-oxo-1H-benzo[8,8a][1]benzopyrano[2,3-e]isoindole] |  | 0.04 (≈ 0.0902 µM) | 20 (≈ 45.1 µM)
C[C@H]1CC[C@H]2C(C)(C)[C@@H](O)CC[C@]23Oc2c(c(O)cc4c2C(=O)N(C)C4=O)C[C@]13C [Compound (32b), (6aR, 7S, 9aS, 11S, 13aS)-2,3,6,6a, 7,8,9,9a, 10, 11, 12, 13-dodecahydro-5, 11-dihydroxy-2,6a, 7, 10, 10-pentamethyl-13-dioxo-1H-benzo[8,8a][1]benzopyrano[2,3-e]isoindole] | 10 (≈ 24.2 µM) | 0.04 (≈ 0.0967 µM) | 
CCCCN1C(=O)c2cc(O)c3c(c2C1=O)O[C@@]12CC[C@H](O)C(C)(C)[C@@H]1CC[C@H](C)[C@@]2(C)C3 [Compound (32c), (6aR, 7S, 9aS, 11S, 13aS)-2-butyl-2,3,6,6a, 7,8,9,9a, 10, 11, 12, 13-dodecahydro-5, 11-dihydroxy-6a, 7, 10, 10-tetramethyl-13-dioxo-1H-benzo[8,8a][1]benzopyrano[2,3-e]isoindole] | 5 (≈ 11 µM) | 0.04 to 0.08 (≈ 0.0878 to 0.176 µM) | 
C[C@H]1CC[C@H]2C(C)(C)[C@@H](O)CC[C@]23Oc2c(c(O)cc4c2CNC4)C[C@]13C [Compound (34a), (6aR, 7S, 9aS, 11S, 13aS)-2,3,6,6a, 7,8,9,9a, 10, 11, 12, 13-dodecahydro-5, 11-dihydroxy-6a, 7,10,10-tetramethyl-1H-benzo[8,8a][1]benzopyrano[2,3-e]isoindole] |  | 0.04 (≈ 0.108 µM) | > 10
C[C@H]1CC[C@H]2C(C)(C)[C@@H](OC(=O)c3cccnc3)CC[C@]23Oc2c(c(O)cc4c2CNC4=O)C[C@]13C [Compound (35a), (6aR, 7S, 9aS, 11S, 13aS)-2,3,6,6a, 7,8,9,9a, 10, 11, 12, 13-dodecahydro-5-hydroxy-6a, 7, 10, 10-tetramethyl-3-oxo-11-[(3-pyridyl)carbonyloxy]-1H-benzo[8,8a][1]benzopyrano[2,3-e]isoindole] |  | 0.001 (≈ 0.00204 µM) | 10 (≈ 20.4 µM)
C[C@H]1CC[C@H]2C(C)(C)[C@@H](OC(=O)c3cnccn3)CC[C@]23Oc2c(c(O)cc4c2CNC4=O)C[C@]13C [Compound (35b), (6aR, 7S, 9aS, 11S, 13aS)-2,3,6,6a, 7,8,9,9a, 10, 11, 12, 13-dodecahydro-5-hydroxy-6a, 7, 10, 10-tetramethyl-3-oxo-11-[(2-pyrazyl)carbonyloxy]-1H-benzo[8,8a][1]benzopyrano[2,3-e]isoindole] | 10 (≈ 20.3 µM) | 0.002 to 0.004 (≈ 0.00407 to 0.00814 µM) | 
C[C@H]1CC[C@H]2C(C)(C)C=CC[C@]23Oc2c(c(O)cc4c2CNC4=O)C[C@]13C [Compound (41a), (6a R, 7 S, 9a S, 13a S)-2,3,6,6a, 7,8,9,9a, 10, 13-decahydro-5-hydroxy-6a, 7, 10, 10-tetramethyl-3-oxo-1H-benzo[8,8a][1]benzopyrano[2,3-e]isoindole] |  | 0.002 (≈ 0.00544 µM) | 5 (≈ 13.6 µM)
C[C@H]1CC[C@H]2C(C)(C)CCC[C@]23Oc2c(c(O)cc4c2CNC4=O)C[C@]13C [Compound (42), (6a R, 7 S, 9a S, 13a S)-2,3,6,6a, 7,8,9,9a, 10, 11, 12, 13-dodecahydro-5-hydroxy-6a, 7, 10, 10-tetramethyl-3-oxo-1H-benzo [8,8a] [1] benzopyrano[2,3-e]isoindole] |  | 0.002 (≈ 0.00541 µM) | 5 (≈ 13.5 µM)
C[C@H]1CC[C@H]2C(C)(C)[C@H]3O[C@H]3C[C@]23Oc2c(c(O)cc4c2CNC4=O)C[C@]13C [Compound (43a), (6a R, 7 S, 9a S, 11 R, 12 S, 13a S)-11,12-epoxy-2,3,6,6a, 7,8,9,9a, 10, 11, 12, 13-dodecahydro-5-hydroxy-6a, 7, 10, 10-tetramethyl-3-oxo-1H-benzo[8,8a][1]benzopyrano[2,3-e]isoindole] |  | 0.001 to 0.002 (≈ 0.00261 to 0.00522 µM) | 40 (≈ 104 µM)
C[C@H]1CC[C@H]2C(C)(C)[C@@H](N)CC[C@]23Oc2c(c(O)cc4c2CNC4=O)C[C@]13C [Compound (47a), (6aR, 7S, 9aS, 11S, 13aS)-11-amino-2,3,6,6a, 7,8,9,9a, 10, 11, 12, 13-dodecahydro-5-hydroxy-6a, 7, 10, 10-tetramethyl-3-oxo-1H-benzo[8,8a][1]benzopyrano[2,3-e]isoindole] |  | 0.02 (≈ 0.052 µM) | > 10
CC(=O)N[C@H]1CC[C@@]23Oc4c(c(O)cc5c4CNC5=O)C[C@]2(C)[C@@H](C)CC[C@H]3C1(C)C [Compound (47b), (6aR, 7S, 9aS, 11S, 13aS)-11-acetylamino-2,3,6,6a, 7,8,9,9a, 10, 11, 12, 13-dodecahydro-5-hydroxy-6a, 7, 10, 10-tetramethyl-3-oxo-1H-benzo[8,8a][1]benzopyrano[2,3-e]isoindole] |  | 0.02 (≈ 0.0469 µM) | > 10
C[C@H]1CC[C@H]2C(C)(C)[C@@H](NS(C)(=O)=O)CC[C@]23Oc2c(c(O)cc4c2CNC4=O)C[C@]13C [Compound (47c), (6aR, 7S, 9aS, 11S, 13aS)-2,3,6,6a, 7,8,9,9a, 10, 11, 12, 13-dodecahydro-5-hydroxy-6a, 7, 10, 10-tetramethyl-11-methanesulfonylamino-3-oxo-1H-benzo[8,8a][1]benzopyrano[2,3-e]isoindole] |  | 0.01 (≈ 0.0216 µM) | > 10
C[C@H]1CC[C@H]2C(C)(C)[C@@H](NS(=O)(=O)c3ccccc3)CC[C@]23Oc2c(c(O)cc4c2CNC4=O)C[C@]13C [Compound (47d), (6aR, 7S, 9aS, 11S, 13aS)-2,3,6,6a, 7,8,9,9a, 10, 11, 12, 13-dodecahydro-5-hydroxy-6a, 7, 10, 10-tetramethyl-11-phenylsulfonylamino-3-oxo-1H-benzo[8,8a][1]benzopyrano[2,3-e]isoindole] |  | 0.003 (≈ 0.00572 µM) | 5 to 10 (≈ 9.53 to 19.1 µM)
